Reference: patent US5766875A, “Metabolic monitoring of cells in a microplate reader” (priority 1995, dated 1998)
Where a name gives a salt, the structure may show the parent alone. Read-outs that look alike come from different tables or passages of the source.

Columns and labels:
[1] = Redox Indicators; cited from earlier work
[2] = Apparent pH change with temperature of buffering systems as indicated by phenol red; type: physicochemical; settings: phenol red pH indicator, 50 mM total buffer
M1WT3 cells = experiment: Carbachol stimulation of M1WT3 cells, extracellular acidification rate in a THERMOmax microplate reader (Example 8); type: cell-based; settings: for ΔpH/Sec: mean of triplicate
Experimental: The M1WT3 cells used for the following experiments were obtained from the American Type Culture Collection (No. CRL 1985). These cells were a line of CHO-K1 cells transfected with the gene for muscarinic receptors in order to provide cells responsive to cholinergic agonists, such as Carbachol. The M1WT3 cells were grown in Ham's F12 medium with 50 μg/ml […] (Geneticin), 10% fetal bovine serum, […], 1.0 mg/L streptomycin and 1000 units/L penicillin (growing medium) under 5% CO2 at 37° C.
To initiate growth, 5×10^4 M1WT3 cell/well (200 μL/well) were sterilely plated in selected individual wells of a flat bottom 96-well microplate. The selected wells were comprised of the inner 60 wells. At least 3 of the inner wells, however, were left without cells to be used as control wells. The entire microplate then was covered with a loosely-fitting plastic cover that allowed gas exchange to the wells and the microplate was incubated at 37° C. for approximately 24 hours to allow cells to attach to bottom of each selected well with cells.
Twelve hours prior to measuring extracellular acidification the growing media was aspirated off with a vacuum system and replaced with 200 μL of starving media (growing media with 1 mg/ml bovine serum albumin in place of the 10% fetal bovine serum) and the cells were again placed under 5% CO2 at 37° C. The microplate was then incubated for 12 hours. Within 30-60 minutes prior to monitoring the rates of extracellular acidification, the starving medium was aspirated off, the wells were rinsed with approximately 200 μL simple indicator medium (Table 2 components) and then filled with 200 μL of simple indicator medium. All media was warmed to 37° C. before addition to the cells.
The light absorbance of the individual wells of the 96-well microplate was read in a THERMOmax™ microplate absorbance reader modified to record the ratio of optical density at two wavelengths (560 nm/420 nm), kinetically at 37° C. for 15 minutes with automix on. The automix feature is described in the Operator's Manual for the THERMOmax™ instrument (Catalog No. 0112-0014) of Molecular Devices Corporation, Menlo Park, Calif. The automix feature provides for uniform mixing of the contents of each well of the multiassay plate for about 5 seconds, followed by measurement of optical density at the first wavelength (in this case 560 nm) in about 5 seconds, followed by a change in interference filter in about 1 second, followed by measurement of optical density at the second wavelength (in this case 420 nm) in about 5 seconds. Thus, all optical density measurements are completed within 11 seconds following termination of the agitation step and the time elapsed for any one well between measuring the optical density at the first and second wavelengths was 6 seconds. This was the minimum time between reading optical density at the first and second wavelengths possible with the THERMOmax™ instrument. Preferably the readings at the first and second wavelengths are made simultaneously.
Additionally, the contents of the microplate wells were not agitated between reading optical density at the first and second wavelengths so that the light scattering effects of the cells tended to be the same for the optical density measurements made at the first and second wavelengths for any one well. […] The reading cycle, with agitation, measuring absorbance at the first wavelength of light, changing the filter, and reading the absorbance at the second wavelength of light, was repeated at the rate of 3 cycles per minute (i.e. every 20 seconds).
At the end of the 15 minutes the reading cycles were stopped, the microplate was removed and the media was quickly aspirated off and replaced with simple indicator media containing a cell-affecting agent, in this case 0 to 300 μM Carbachol. The reading cycles then were repeated, as above, for two consecutive 15 minute data collection periods followed by one final 30 minute data collection period. […]

Compound: Nc1ccc2nc3ccc(N)cc3[s+]c2c1 [Thionin]
- Potential at pHOa [1]: 0.56 Volts

Compound: NC(CO)(CO)CO [TRIS, tris[Hydroxymethyl]aminomethane]
- apparent change in pH with change in temperature ([2]; equilibrium with CO2 in air): -14.93 millipH/°C.
- apparent change in pH with change in temperature ([2]; with 1.0M NaCl added): -13.36 millipH/°C.

Compound: O.O.[C-]#N.[C-]#N.[Fe+2].c1cnc2c(c1)ccc1cccnc12.c1cnc2c(c1)ccc1cccnc12 [Dicyanobis(1,10-phenanthroline)Iron]
- Potential at pHOa [1]: 1.41 Volts

Compound: O=C1C(Cl)=CC(=Nc2ccc(O)cc2)C=C1Cl [2,6-Dichloroindophenol Sodium Salt]
- Potential at pHOa [1]: 0.67 Volts

Compound: O=S(=O)(O)CCCNC(CO)(CO)CO [TAPS, 3-{[tris-(hydroxymethyl)-methyl]-amino}-propanesulfonicacid]
- apparent change in pH with change in temperature ([2]; equilibrium with CO2 in air): -12.07 millipH/°C.

Compound: CCOc1ccc(N=Nc2ccc(N)cc2N)cc1 [p-Ethoxyphenylazo-m-phenylanediamine Monohydrochloride]
- Potential at pHOa [1]: 0.76 Volts

Compound: O=C(O)CN(CCN(CC(=O)O)CC(=O)O)CC(=O)O [EDTA, Ethylenedinitrilo-Tetraacetic Acid]
- apparent change in pH with change in temperature ([2]; equilibrium with CO2 in air): less than 1 millipH/°C.

Compound: c1ccc(Nc2ccccc2)cc1 [Diphenylamine]
- Potential at pHOa [1]: 0.76 Volts

Compound: COc1ccc(Nc2ccc(N)cc2)cc1 [N-(p-Methoxyphenyl)-p-phenylanediamine Hydrochloride]
- Potential at pHOa [1]: 0.71 Volts

Compound: COc1cc(-c2ccc(N)c(OC)c2)ccc1N.Cl.Cl [3,3'-Dimethoxybenzidine Dihydrochloride]
- Potential at pHOa [1]: 0.76 Volts

Compound: COc1cc(-c2ccc(N)c(OC)c2)ccc1N [3,3'-Dimethoxybenzidine]
- Potential at pHOa [1]: 0.76 Volts

Compound: O=S(=O)([O-])c1ccc(Nc2ccccc2)cc1.O=S(=O)([O-])c1ccc(Nc2ccccc2)cc1.[Ba+2] [Barium Diphenylaminesulfonate]
- Potential at pHOa [1]: 0.85 Volts

Compound: Diphenylaminosulfonic Acid Sodium Salt
- Potential at pHOa [1]: 0.85 Volts

Compound: O=S(=O)([O-])[O-].[Fe+2].c1cnc2c(c1)ccc1cccnc12.c1cnc2c(c1)ccc1cccnc12.c1cnc2c(c1)ccc1cccnc12 [Tris(1,10-phenanthroline)Iron(R) Sulfate]
- Potential at pHOa [1]: 1.14 Volts

Compound: CC[N+](CC)=c1ccc2nc3c(cc(N)c4ccccc43)oc-2c1 [Nile Blue A]
- Potential at pHOa [1]: 0.29 Volts

Compound: Brilliant Cresyl Blue
- Potential at pHOa [1]: 0.58 Volts

Compound: CN(C)c1ccc(N=C2C=CC(=O)C=C2)cc1 [N,N-Dimethylindoaniline]
- Potential at pHOa [1]: 0.22 Volts

Compound: O=S(=O)(O)CCN1CCN(CCO)CC1 [HEPES, N-[2-Hydroxyethyl]piperazine-N'-[2-ethanesulfonic acid]]
- apparent change in pH with change in temperature ([2]; equilibrium with CO2 in air): -3.92 millipH/°C.

Compound: O=C(O)CC(O)(CC(=O)O)C(=O)O [Citrate buffer]
- apparent change in pH with change in temperature ([2]; with 1.0M NaCl added): 8.06 millipH/°C.

Compound: Cc1cc(-c2ccc(N)c(C)c2)ccc1N [o-Tolidine]
- Potential at pHOa [1]: 0.87 Volts

Compound: CN(C)c1ccc(N)cc1 [N,N-Dimethyl-p-phenylanediamine]
- Potential at pHOa [1]: 0.76 Volts

Compound: C[N+](C)(C)CCOC(N)=O [Carbachol]
- ΔProtons/Cell·Sec minus 0 Carbachol (M1WT3 cells; 3 μM, First 15 min): 1.00E + 07 ΔProtons/Cell·Sec
- ΔpH/Sec (M1WT3 cells; 3 μM, First 15 min): 7.1534E - 05 ΔpH/Sec
- ΔProtons/Cell·Sec minus 0 Carbachol (M1WT3 cells; 3 μM, Last 30 min): 1.44E - 07 ΔProtons/Cell·Sec
- ΔpH/Sec (M1WT3 cells; 3 μM, Last 30 min): 5.0490E - 05 ΔpH/Sec
- ΔProtons/Cell·Sec minus 0 Carbachol (M1WT3 cells; 3 μM, Second 15 min): 1.12E - 07 ΔProtons/Cell·Sec
- ΔpH/Sec (M1WT3 cells; 3 μM, Second 15 min): 5.2542E - 05 ΔpH/Sec
- ΔProtons/Cell·Sec minus 0 Carbachol (M1WT3 cells; 10 μM, First 15 min): 1.44E + 07 ΔProtons/Cell·Sec
- ΔpH/Sec (M1WT3 cells; 10 μM, First 15 min): 7.5928E - 05 ΔpH/Sec
- ΔProtons/Cell·Sec minus 0 Carbachol (M1WT3 cells; 10 μM, Last 30 min): 2.10E - 07 ΔProtons/Cell·Sec
- ΔpH/Sec (M1WT3 cells; 10 μM, Last 30 min): 5.7103E - 05 ΔpH/Sec
- ΔpH/Sec (M1WT3 cells; 10 μM, Second 15 min): 5.6378E - 05 ΔpH/Sec
- ΔProtons/Cell·Sec minus 0 Carbachol (M1WT3 cells; 30 μM, First 15 min): 1.12E + 07 ΔProtons/Cell·Sec
- ΔpH/Sec (M1WT3 cells; 30 μM, First 15 min): 7.2713E - 05 ΔpH/Sec
- ΔpH/Sec (M1WT3 cells; 30 μM, Last 30 min): 5.7641E - 05 ΔpH/Sec
- ΔProtons/Cell·Sec minus 0 Carbachol (M1WT3 cells; 30 μM, Second 15 min): 1.47E - 07 ΔProtons/Cell·Sec
- ΔpH/Sec (M1WT3 cells; 30 μM, Second 15 min): 5.6101E - 05 ΔpH/Sec
- ΔProtons/Cell·Sec minus 0 Carbachol (M1WT3 cells; 300 μM, First 15 min): 6.76E + 06 ΔProtons/Cell·Sec
- ΔpH/Sec (M1WT3 cells; 300 μM, First 15 min): 8.8294E - 05 ΔpH/Sec
- ΔpH/Sec (M1WT3 cells; 300 μM, Last 30 min): 5.2560E - 05 ΔpH/Sec
- ΔProtons/Cell·Sec minus 0 Carbachol (M1WT3 cells; 300 μM, Second 15 min): 1.11E - 07 ΔProtons/Cell·Sec
- ΔpH/Sec (M1WT3 cells; 300 μM, Second 15 min): 5.2420E - 05 ΔpH/Sec
- activation at 3 µM (M1WT3 cells; 0.25 h, 3 μM, First 15 min, read-out: % Change compared to pre-Carbachol): 5.94%
- activation at 3 µM (M1WT3 cells; 0.25 h, 3 μM, First 15 min, read-out: % Change compared to pre-Carbachol minus 0 Carbachol): 12.6%
- activation at 10 µM (M1WT3 cells; 0.25 h, 10 μM, First 15 min, read-out: % Change compared to pre-Carbachol): 20%
- activation at 10 µM (M1WT3 cells; 0.25 h, 10 μM, First 15 min, read-out: % Change compared to pre-Carbachol minus 0 Carbachol): 26.6%
- activation at 30 µM (M1WT3 cells; 0.25 h, 30 μM, First 15 min, read-out: % Change compared to pre-Carbachol): 18.6%
- activation at 30 µM (M1WT3 cells; 0.25 h, 30 μM, First 15 min, read-out: % Change compared to pre-Carbachol minus 0 Carbachol): 25.3%
- activation at 300 µM (M1WT3 cells; 0.25 h, 300 μM, First 15 min, read-out: % Change compared to pre-Carbachol): 19.4%
- activation at 300 µM (M1WT3 cells; 0.25 h, 300 μM, First 15 min, read-out: % Change compared to pre-Carbachol minus 0 Carbachol): 26.1%
- activation at 3 µM (M1WT3 cells; 0.5 h, 3 μM, Last 30 min, read-out: % Change compared to pre-Carbachol): -25.2%
- activation at 3 µM (M1WT3 cells; 0.5 h, 3 μM, Last 30 min, read-out: % Change compared to pre-Carbachol minus 0 Carbachol): 20%
- activation at 3 µM (M1WT3 cells; 0.5 h, 3 μM, Second 15 min, read-out: % Change compared to pre-Carbachol): -22.2%
- activation at 3 µM (M1WT3 cells; 0.5 h, 3 μM, Second 15 min, read-out: % Change compared to pre-Carbachol minus 0 Carbachol): 15%
- activation at 10 µM (M1WT3 cells; 0.5 h, 10 μM, Last 30 min, read-out: % Change compared to pre-Carbachol): -9.77%
- activation at 10 µM (M1WT3 cells; 0.5 h, 10 μM, Last 30 min, read-out: % Change compared to pre-Carbachol minus 0 Carbachol): 35.5%
- activation at 10 µM (M1WT3 cells; 0.5 h, 10 μM, Second 15 min, read-out: % Change compared to pre-Carbachol): -10.9%
- activation at 10 µM (M1WT3 cells; 0.5 h, 10 μM, Second 15 min, read-out: % Change compared to pre-Carbachol minus 0 Carbachol): 26.3%
- activation at 30 µM (M1WT3 cells; 0.5 h, 30 μM, Last 30 min, read-out: % Change compared to pre-Carbachol): -5.63%
- activation at 30 µM (M1WT3 cells; 0.5 h, 30 μM, Last 30 min, read-out: % Change compared to pre-Carbachol minus 0 Carbachol): 39.6%
- activation at 30 µM (M1WT3 cells; 0.5 h, 30 μM, Second 15 min, read-out: % Change compared to pre-Carbachol): -8.46%
- activation at 30 µM (M1WT3 cells; 0.5 h, 30 μM, Second 15 min, read-out: % Change compared to pre-Carbachol minus 0 Carbachol): 28.8%
- activation at 300 µM (M1WT3 cells; 0.5 h, 300 μM, Last 30 min, read-out: % Change compared to pre-Carbachol): -8.08%
- activation at 300 µM (M1WT3 cells; 0.5 h, 300 μM, Last 30 min, read-out: % Change compared to pre-Carbachol minus 0 Carbachol): 37.2%
- activation at 300 µM (M1WT3 cells; 0.5 h, 300 μM, Second 15 min, read-out: % Change compared to pre-Carbachol): -8.33%
- activation at 300 µM (M1WT3 cells; 0.5 h, 300 μM, Second 15 min, read-out: % Change compared to pre-Carbachol minus 0 Carbachol): 28.9%

Compound: CN(C)c1ccc2nc3ccc(=[N+](C)C)cc-3sc2c1 [Methylene Blue]
- Potential at pHOa [1]: 0.53 Volts

Compound: N,N-Diphenylbenzidine
- Potential at pHOa [1]: 0.76 Volts

Compound: CCN=C1C=CC(=C(c2ccc(NCC)c(C)c2)c2ccc(S(=O)(=O)O)cc2S(=O)(=O)O)C=C1C [Xylene Cyanol FF]
- Potential at pHOa [1]: 1.00 Volts

Compound: Cc1cc2nc3ccc(N(C)C)cc3nc2cc1N [Neutral Red]
- Potential at pHOa [1]: -0.24 Volts

Compound: O=C(O)c1ccccc1Nc1ccccc1 [N-Phenylanthranilic Acid]
- Potential at pHOa [1]: 1.08 Volts
